Data: patent US20020058699A1, “Methods for treating seizure disorders by inhibiting MAPK pathway activation” (priority 2000, published 2002)
Entries after “also recorded” stand apart in the source; their conditions may differ.

Columns and labels:
[1] = system: Kv4.2; assay: Phospho-Kv4.2 Western blotting of hippocampal membrane fractions from kainate and control animals; format: in vivo, rat
Experimental: Western blotting using the phospho-Kv4.2 antibody to the ERK sites was performed on membrane fractions from kainate and control animals pretreated with SL327 as described in Example 1. See also Adams et al., J. Neurochem. 75:2277-2287 (2000), and Anderson et al., J. Biol. Chem. 275:5337-5346 (2000). Animals were sacrificed 30 minutes after kainate (before overt seizures) and 1 hour after continuous motor seizures.

[2] = system: transient K+ currents composed of Kv4.2 subunits; assay: Transient K+ currents recorded in distal dendrites of hippocampal area CA1 slices; format: cell-based
Experimental: MEK inhibitor PD098059 ([…]) or vehicle was applied to the hippocampal CA1 slices at least 20 minutes before recording conductance.
The functional consequence of MAPK inhibition on transient K^+currents composed of Kv4.2 subunits as recorded in distal dendrites of hippocampal area CA1 was evaluated. The MEK inhibitor PD098059 ([…]) or vehicle was applied to the hippocampal CA1 slices at least 20 min prior to recording conductance.

[3] = system: CREB; assay: Phospho-CREB Western blots of hippocampus; format: in vivo, rat
Experimental: Western blots prepared using CA1, CA3 and dentate regions of the hippocampus from rats following kainate-induced status epilepticus (KA, n=3) or vehicle alone (CTL, n=3) were performed using phospho-CREB antibodies. […] There is a small but significant decrease in CREB phosphorylation in CA3 (CA3 80.4±9.0%; *p<0.05, ***p<0.001).
Hippocampal region CA1 was removed 2 hours after rats were treated IP with the MEK inhibitor, SL327 (100 mg/kg) or vehicle alone. Western blots were developed using the phosho-CREB antibody.

[4] = system: kainate-induced limbic motor seizures; assay: Kainate-induced seizures scored by Racine Classification Scale; format: in vivo, rat
Experimental: Male Sprague-Dawley rats (125-200 gm) were administered kainate at a dose of 15 mg/kg IP while the control animals (CTL) received vehicle IP (saline). Seizures were scored independently by two investigators in accordance with the Racine Classification Scale (0=no seizures, 1=mouth/face movements; 2=head nodding; 3=forelimb clonus; 4=rearing; and 5=rearing and falling). [Ben-Ari et al., Devl. Brain. Res. 14:284-288 (1985)]. Seizure score is shown plotted against time in the kainate-treated and control (vehicle-injected) animals.
(§1) Adult rats were injected IP with SL327 100 mg/kg or vehicle alone (PEG400/ETOH) were administered 30 minutes later with kainate or vehicle (saline). Animals were sacrificed at following 1 hour of kainate-induced seizures or three hours after kainate injection. Hippocampal regions CA1, CA3, and dentate were removed and processed for Western blotting, as described in Example 1.
Animals were treated as described in Example 2 except that SL327 was administered at 400 mg/kg.

[5] = system: ERK MAPK (p42 and p44); assay: Hippocampal ERK activation by Western blotting (phospho-ERK and total ERK); format: in vivo, rat; conditions: for basal ERK phosphorylation: CTL+SL327 400 mg/kg; for kainate-induced ERK phosphorylation: KA+SL327 400 mg/kg; for basal ERK activation (phospho-ERK): control+SL327 100 mg/kg; for kainate-induced ERK activation (phospho-ERK): kainate+SL327 100 mg/kg; for ERK activation (phospho-ERK): kainate+vehicle (PEG400/ETOH)
Experimental: Hippocampal ERK activation was quantified by Western blotting using the method described by Atkins el al.[Atkins et al., Nat. Neurosci. 1:602-609 (1998)] with minor modifications. In brief, animals were sacrificed at 30 minutes and after 1 hr of class 5 seizures (150 min post injection) and the hippocampus was dissected. CA1, CA3 and dentate subregions were dissected in ice-cold saline and homogenates prepared by extracting with denaturing detergent. Protein concentrations were deteremined by Bradford Assay. Homogenates were subjected to Western blotting (immunoblots) prepared by routine methods (for example, see Harlow and Lane, in ANTIBODIES: A LABORATORY MANUAL, Cold Spring Harbor Laboratory Press (1988)). Blotted protein was detected using antibodies to total ERK (1:10,000) and dually phosphorylated, activated ERK MAPK (p42 and p44)(1:1000)(Cell Signaling). Enzyme activity associated with a secondary antibody was detected by incubation with Enhanced Chemiluminescent Reagent (BioRad Laboratories, Hercules Calif.) as substrate. Immunoreactivity of the total ERK and dually phosphorylated activated ERK MAPK in the blot was quantified using densitometry (Scion) for representative blots of p42 and analyzed by Student's t-test.
as §1
ERK phosphorylation in brain tissue was evaluated in kainate challenged animals pretreated with 400 mg/kg SL327. […] CA1, CA3, and dentate were dissected and processed for Western blotting as described in Example 1. […] Tukey's Multiple Comparison Test: ***p<0.001.

[6] = Behavioral observation of animals treated with SL327; format: in vivo, rat
[7] = system: phospho-ERK; assay: Phospho-ERK immunohistochemistry of hippocampus; format: in vivo, rat; conditions: 150 min after kainate; stratum oriens of CA1, stratum radiatum of CA1 and CA3, dentate hilus, mossy fiber inputs to CA3
Experimental: Immunohistochemical analysis of stained neural tissue was performed as described by Varga et al., Learn Mem 7;321-322 (2000), with the following modifications. In this case, kainate and control animals were sacrificed at 150 minutes following injection, while in stage 5 seizures for about 1 hour. After tissue fixation, 20-micron sections were thaw-mounted and incubated in 0.3% H2O2 in methanol for 30 minutes at RT, washed in PBST (PBS containing 0.2% Triton X-100), and blocked in PBST containing 5% normal goat serum (NGS). Sections were then incubated with the phospho-ERK antibody (1:100) overnight, washed with PBST, and incubated with a 1:200 dilution of goat anti-rabbit biotinylated secondary antibody for 30 minutes at RT. After washing and incubation with a 1:50 dilution of ABC reagent (Pierce) for 30 minutes at RT, sections were again washed in PBST and then stained using metal enhanced DAB. Sections were then rinsed, cleared, and coverslipped using a xylene based medium.

[8] = system: phospho-Kv4.2; assay: Phospho-Kv4.2 immunohistochemistry of hippocampus; format: in vivo, rat; conditions: after kainate-induced seizures; stratum oriens and radiatum of CA1 and CA3, dentate hilus
Experimental: [insert*: see symbol after “antibody”] Immunohistochemistry using phospho-Kv4.2 antibody (phospho-Kv4.2) to the ERK sites was performed as described in Example 1 for the same animal groups. […] These areas include stratum oriens and stratum radiatum of areas CA1 and CA3 and the dentate hilus.

[9] = system: Kv4.2; conditions: U0126 20 μM, rat hippocampal slices, CA1
Experimental: Rat hippocampal slices were bathed in vehicle with MEK inhibitor U0126 (20 μM) or vehicle alone (CTL).

[10] = SL327 100 mg/kg IP 30 min before kainate
[11] = vehicle-treated kainate group (no SL327)

## N#CC(=C(N)Sc1ccc(N)cc1)c1ccccc1C(F)(F)F [SL327, Z- and E-α-[amino[(4-aminophenyl)thio]methylene]-2-(trifluoromethyl)benzeneacetonitrile]
[1]; KA+SL327 400 mg/kg, CA1
  phospho-Kv4.2: 152.8±41.4 % of CTL+SL327
[1]; KA+SL327 400 mg/kg, CA3
  phospho-Kv4.2: 170.8±16.6 % of CTL+SL327
[1]; KA+SL327 400 mg/kg, dentate
  phospho-Kv4.2: 66.6±10.36 % of CTL+SL327
[2]; n=2, Control 85.55%
  unspecified quantity, % of control: 61.83 % of control
[3]; CA1, 2 hours after SL327 100 mg/kg IP
  activated CREB (phospho-CREB): reduces the amount of activated CREB
[4]; [10]
  animals with class 5 seizures: 100%
  block of kainate-induced seizures: did not block kainate-induced seizures
[4]; SL327 400 mg/kg IP 30 min before kainate 15 mg/kg
  block of kainate-induced limbic motor seizures: blocks limbic motor status epilepticus; also recorded: effectively blocked kainate-induced limbic motor seizures
[5]; CA1
  basal ERK phosphorylation: 8.4±7.2 % of CTL+Vehicle
  kainate-induced ERK phosphorylation: 31.5±10.5 % of CTL+Vehicle
  basal ERK activation (phospho-ERK): 46.05 (±15.89) % control
  kainate-induced ERK activation (phospho-ERK): 220.70 (±35.80) % control
[5]; CA3
  basal ERK phosphorylation: 2.9±0.5 % of CTL+Vehicle
  kainate-induced ERK phosphorylation: 26.2±10.8 % of CTL+Vehicle
  basal ERK activation (phospho-ERK): 37.51 (±9.59) % control
  kainate-induced ERK activation (phospho-ERK): 143.60 (±22.26) % control
[5]; dentate
  basal ERK phosphorylation: 3.1±0.8 % of CTL+Vehicle
  kainate-induced ERK phosphorylation: 24.7±9.9 % of CTL+Vehicle
  basal ERK activation (phospho-ERK): 32.16 (±11.46) % control
  kainate-induced ERK activation (phospho-ERK): 195.6 (±18.58) % control
[5]; SL327 400 mg/kg pretreatment, total ERK antibody
  total ERK1/ERK2 MAPK protein: no changes in total protein
[6]; SL327 400 mg/kg, all groups
  sedation: modest degree of apparent sedation
[6]; SL327 400 mg/kg, some animals in kainate and control groups
  locomotor activity: increase in locomotor activity
[6]; control animals, SL327 100 mg/kg
  lethargy or other behavioral changes: No obvious lethargy or other behavioral changes

## C=C(C)[C@H]1CN[C@H](C(=O)O)[C@H]1CC(=O)O [kainate]
[1]; CA1, 30 min after kainate injection
  ERK phosphorylation of Kv4.2: 48.80±6.95 % control
[1]; CA3, 30 min after kainate injection
  ERK phosphorylation of Kv4.2: 128.70±29.12 % control
[1]; KA+Vehicle, CA1, after 1 hr limbic motor seizures
  phospho-Kv4.2: 535.5±84.1 % of CTL+Vehicle
[1]; KA+Vehicle, CA3, after 1 hr limbic motor seizures
  phospho-Kv4.2: 442.0±57.0 % of CTL+Vehicle
[1]; KA+Vehicle, dentate, after 1 hr limbic motor seizures
  phospho-Kv4.2: 1177.0±361.1 % of CTL+Vehicle
[1]; dentate, 30 min after kainate injection
  ERK phosphorylation of Kv4.2: 109.10±11.09 % control
[7]
  phospho-ERK staining: increased greatly
[3]; CA1, kainate-induced status epilepticus
  CREB phosphorylation: 162.9±29.4 % of control
[3]; CA3, kainate-induced status epilepticus
  CREB phosphorylation: 80.4±9.0%
[3]; dentate, kainate-induced status epilepticus
  CREB phosphorylation: 138.0±4.4 % of control
[4]; kainate 15 mg/kg IP, male Sprague-Dawley rats, within 90 min, persisted until 150 min
  seizure class (Racine Classification Scale): all of the animals studied developed class 5 seizures
[4]; [11]
  animals progressed to Class 3 seizures: 1/9
  animals progressed to Class 5 seizures: 6/9
  animals that developed limbic motor seizures: 78%
  animals with no evidence of motor seizures: 2/9
[8]
  phospho-Kv4.2 staining: increase in phospho-Kv4.2
[5]; CA1, 30 min after kainate 15 mg/kg IP, prior to behavioral seizures
  phospho-ERK2 immunoreactivity: 218.9 (±40.66) % CTL
[5]; CA1, 150 min after kainate, class 5 seizures
  phospho-ERK2 immunoreactivity: 165.5±16.5 % of control
[5]; CA3, 30 min after kainate 15 mg/kg IP
  phospho-ERK2 immunoreactivity: 206.80 (±31.61) % CTL
[5]; CA3, 150 min after kainate, class 5 seizures
  phospho-ERK2 immunoreactivity: 153.1±10.3 % of control
[5]; dentate, 30 min after kainate 15 mg/kg IP
  phospho-ERK2 immunoreactivity: 305.50 (±58.26) % CTL
[5]; dentate, 150 min after kainate, class 5 seizures
  phospho-ERK2 immunoreactivity: 224.8±34.1 % of control
[5]; kainate versus control, total MAPK antibody
  total MAPK immunoreactivity: No difference
[5]; CA1
  ERK activation (phospho-ERK): 215.40 (±24.19) % control
[5]; CA3
  ERK activation (phospho-ERK): 196.60 (±6.69) % control
[5]; dentate
  ERK activation (phospho-ERK): 219.60 (±8.82) % control

## N#CC(=C(/N)Sc1ccccc1N)/C(C#N)=C(\N)Sc1ccccc1N [U0126]
[9]
  detection by MAPK-Kv4.2 phospho-selective antibody (basal Kv4.2 phosphorylation): 61.14%±8.74 % of control

## COc1cccc(-c2cc(=O)c3ccccc3o2)c1N [PD098059, 2-(2′-amino-3′-methoxyphenyl)-oxanaphthalen-4-one]
[2]; MEK inhibitor applied to hippocampal CA1 slices at least 20 min before recording
  effect on conductance / voltage-dependence of K+ currents in dendrites: hyperpolarizing shift; also recorded: Conductance with inhibitor was increased compared to controls at almost all voltages applied
[2]; as printed: after compound, PD098059 50 μM applied at least 20 min before recording, n=10
  V½ of steady-state activation, after compound: −2 mV
[2]; as printed: before compound, n=7
  V½ of steady-state activation, before compound: −9 mV
